Holding throughout (type): functional
Conditions in all cases: Homo sapiens, read-out: ED50 (the source's name)

Test [1] concerns A498. Description: Cytotoxicity against A-498 cell line in the purdue cell culture screen was determined.
In test [2] the test system is A549. Description: Cytotoxicity against A-549 cell line in the purdue cell culture screen was determined.
Test [3] deals with HT-29. As to the kind of experiment: Cytotoxicity against HT-29 cell line in the purdue cell culture screen was determined.
The subject of test [4] is NCI/ADR-RES. Description: Cytotoxicity against MCF-7ADR cell line in the purdue cell culture screen was determined.
In test [5] the test system is MCF7. As to the kind of experiment: Cytotoxicity against MCF-7 cell line in the purdue cell culture screen was determined.
For test [6], the system named is PC-3. Description: Cytotoxicity against PC-3 cell line in the purdue cell culture screen was determined.
For test [7], the system named is MIA PaCa-2. As to the kind of experiment: Cytotoxicity against PACA-2 cell line in the purdue cell culture screen was determined.
The test system of test [8] is MCF7R. Description: Cytotoxicity against MCF-7R cell line in the purdue cell culture screen was determined.

Structures can show the parent of a compound that is named as a salt.

Take `CC(C)CCC1([C@@H](C)[C@@]2(O)[C@H](O)C[C@@]3(C)C4CC[C@@]5(C)C[C@@H](O)CC[C@]5(C)[C@@]4(C)CC[C@]23C)OCCO1` (stereo not given in full): the EC50 in test [1] was determined as 1.7 µM; in test [2], 13 µM; in test [3], 3 µM; in test [4] it was 28 µM; in test [5], 2.4 µM; in test [6] it was 39 µM. The EC50 in test [7] worked out at 6.4 µM; in test [8] it was 7.1 µM.
As for `CC(C)CCC(=O)[C@@H](C)[C@@]1(O)C(=O)C[C@@]2(C)C3CC[C@@]4(C)C[C@@H](O)CC[C@]4(C)[C@@]3(C)CC[C@@]21C` (stereo not given in full), the EC50 came to 19.3 µM in test [1]; 105 µM in test [2]; 1.6 µM in test [3]; 100 µM in test [4]; 130 µM in test [5]; 5.6 µM in test [6]. Further, the figures for the EC50 in test [7] and in test [8] were 30 µM and 55 µM, respectively.
`CC(C)CCC1([C@@H](C)[C@@]2(O)C(=O)C[C@@]3(C)C4CC[C@@]5(C)C[C@@H](O)CC[C@]5(C)[C@@]4(C)CC[C@@]32C)OCCO1` (stereo not given in full): the EC50 in test [1] was found to be 2.4 µM; in test [2], 17 µM; in test [3], 2.1 µM; in test [4], 13 µM; in test [5], 5.6 µM; in test [6], 43 µM. Moreover, the EC50 in test [7] stood at 23 µM; in test [8], 6.5 µM.
With `CO/N=C1\C[C@]2(C)CCC3C4=C[C@@H]5OC6(CC(C)(C)CO6)[C@@H](C)[C@@H]5[C@@]4(C)[C@H](O)C[C@]3(C)[C@@]2(C)C[C@H]1N` (stereo not given in full), the EC50 in test [1] worked out at 3.1 µM; in test [2] it was 5.9 µM; in test [3], 7.8 µM; in test [4], 76 µM; in test [5], 14 µM; in test [6] it was 14 µM. Besides, in test [7], the EC50 stood at 14 µM.
Regarding `CC(=O)O[C@H]1CC[C@@]2(C)[C@@](C)(CCC3[C@]2(C)CC[C@]2(C)[C@@](O)([C@H](C)C4(CCC(C)C)OCCO4)[C@H](O)C[C@@]32C)C1` (stereo not given in full), the EC50 in test [1] came to 16 µM; in test [2], 30 µM; in test [3], 29 µM; in test [4], 42 µM; in test [5] it was 23 µM; in test [6], 17 µM. Also, the EC50 came out at 23 µM in test [7] and 31 µM in test [8].
Consider `CC(C)CCC1([C@@H](C)[C@@]2(O)[C@@H](O)C[C@@]3(C)C4CC[C@@]5(C)C[C@@H](O)CC[C@]5(C)[C@@]4(C)CC[C@]23C)OCCO1` (stereo not given in full), for which the EC50 in test [1] came out at 1.3 µM; in test [2], 0.34 µM; in test [3], 0.58 µM; in test [6], 0.4 µM; in test [7], 1.2 µM; in test [8], 1.6 µM.
In the case of `CC(C)CCC1([C@@H](C)[C@@]2(O)[C@@H](O)C[C@@]3(C)C4CC[C@@]5(C)Cc6nc7c(nc6C[C@]5(C)[C@@]4(C)CC[C@]23C)C[C@]2(C)CCC3C4=C[C@@H]5OC6(CC(C)(C)CO6)[C@@H](C)[C@@H]5[C@@]4(C)[C@H](O)C[C@]3(C)[C@@]2(C)C7)OCCO1` (stereo not given in full), the EC50 is 3.1 µM in test [1]; 0.1 µM in test [2]; more than 2.6 µM in test [3]; 0.3 µM in test [6]; more than 2.2 µM in test [7]; 1 µM in test [8].
With `CC(C)CCC1([C@@H](C)[C@@]2(O)[C@@H](O)C[C@@]3(C)C4CC[C@]5(C)Cc6nc7c(nc6C[C@]5(C)[C@]4(C)CC[C@]23C)C[C@@]2(C)CCC3[C@@H]4C[C@@H]5OC6(O[C@](C)(CO)C[C@H]6O)[C@@H](C)[C@]5(O)[C@@]4(C)[C@H](O)C[C@]3(C)[C@@]2(C)C7)OCCO1` (stereo not given in full), the EC50 amounted to 1.1 µM in test [1]; 2.9 µM in test [2]; 0.22 µM in test [3]; 1.1 µM in test [6]; 2.4 µM in test [7]; 0.62 µM in test [8].
Consider `CC(=O)O[C@H]1CC[C@@]2(C)C(=CCC3[C@]4(C)CC(=O)[C@](O)([C@H](C)C5(CCC(C)C)OCCO5)[C@@]4(C)CC[C@@]32C)C1` (stereo not given in full), for which the EC50 was 2.8 µM in test [1]; 15 µM in test [2]; 0.5 µM in test [3]; 26 µM in test [4]; 28 µM in test [5]; 3.7 µM in test [6]. Further, the EC50 in test [7] amounted to 2.2 µM; in test [8] it was 11 µM.
For the molecule `CC(C)CCC(=O)[C@@H](C)[C@@]1(O)[C@H](O)C[C@@]2(C)C3CC[C@@]4(C)C[C@@H](O)CC[C@]4(C)[C@@]3(C)CC[C@]12C` (stereo not given in full), the EC50 was determined as 2.4 µM in test [1]; 17 µM in test [2]; 2.1 µM in test [3]; 13 µM in test [4]; 5.6 µM in test [5]; 43 µM in test [6]. For the same molecule, the EC50 came to 23 µM in test [7] and 6.5 µM in test [8].
As for `CC(=O)O[C@H]1CC[C@@]2(C)[C@@](C)(CCC3[C@]2(C)CC[C@@]2(C)[C@@]3(C)CC(=O)[C@]2(O)[C@H](C)C2(CCC(C)C)OCCO2)C1` (stereo not given in full), the EC50 in test [1] came to 15 µM; in test [2] it was 31 µM; in test [3], 7.5 µM; in test [4] it was 70 µM; in test [5], 39 µM; in test [6] it was 580 µM. In addition, the EC50 in test [7] worked out at 88 µM; in test [8], 89 µM.
For the molecule `CC(=O)O[C@H]1CC[C@@]2(C)C(=CCC3[C@]4(C)C[C@H](O)[C@](O)([C@H](C)C5(CCC(C)C)OCCO5)[C@@]4(C)CC[C@@]32C)C1` (stereo not given in full), the EC50 is 2.8 µM in test [1]; 15 µM in test [2]; 4.8 µM in test [3]; more than 64 µM in test [4]; more than 60 µM in test [5]; 10 µM in test [6]. The EC50 in test [7] is 11 µM; in test [8] it was 33 µM.
As to `C[C@@H]1[C@]2(O[C@H]3C=C4[C@@H]5CC[C@H]6Cc7nc8c(nc7C[C@]6(C)[C@H]5C[C@@H](O)[C@]4(C)[C@]31O)C[C@@H]1CC[C@H]3C4=CC[C@@H]5[C@H](C)[C@@]6(OC[C@]45C(=O)C[C@@H]3[C@@]1(C)C8)OC(C)(C)C[C@H]6O)O[C@](C)(CO)C[C@H]2O` [CEPHALOSTATIN 1], the EC50 in test [4] worked out at 4.1 µM; in test [6] it was 1.4 µM; in test [7], 4 µM.
As to `COc1cccc2c1C(=O)c1c(O)c3c(c(O)c1C2=O)C[C@@](O)(C(=O)CO)C[C@@H]3O[C@H]1C[C@H](N)[C@H](O)[C@H](C)O1` [DOXORUBICIN HYDROCHLORIDE], the EC50 in test [1] was 3.5 µM; in test [2], 6.2 µM; in test [3], 3.7 µM; in test [4], 1.5 µM; in test [5], 3.4 µM; in test [6] it was 5.7 µM. The figures for the EC50 in test [7] and in test [8] were 6.3 µM and 0.6 µM, respectively.
